Tests used:
MM074 melanospheres = assay: Melanosphere apoptosis (AnnexinV-APC / propidium iodide); assay type: cell-based, human; conditions: 72h
Protocol: MM074 proliferative/differentiated cell line were seeded (5×10^4 cells) in ultra-low attachment hydrogel-layered 96 well plates in KO DMEM medium supplemented with 20% KSR, AANE, 2 mM Glutamax, Penicillin/Streptomycin and 100 uM Beta-mercaptoethanol. To allow for melanosphere formation, cells were left to grow for 4 days before drug treatment.
For apoptosis assays with 3D-grown melanoma cells, TrypLe Select 10x reagent (Gibco) was used to dissociate melanospheres to obtain single-cell suspensions. These cells were incubated with AnnexinV-APC (Biolegend) and Propidium Iodide (PI, Biolegend). With bivariant dot plots, it was distinguished between viable (AnnexinV-/PI-), early apoptotic (AnnexinV+/PI-), late apoptotic (AnnexinV+/PI+) and necrotic cells (AnnexinV-/PI+).

[1] = system: xenografts with various melanoma cell lines; conditions: different xenografts, 1.2 mg/kg intravenous once per week for 3 weeks
Protocol: Female athymic nu/nu mice (Harlan Laboratories Models, S.L. Barcelona, Spain or Envigo, Spain) were utilized for all experiments. Animal were housed in individually ventilated cages Sealsafe® Plus, Techmplast S.P.A.), up to ten per cage on a 12-hour light-dark cycle at 21-23 °C and 40-60 % humidity. Mice were allowed free access to irradiated standard rodent diet (Tecklad 2914C) and sterilized water. Animals were acclimated for at least 5 days prior to tumor implantation with a tumor cell suspension.
The cell line used are: • 501mel • IGR-37 • SK-Mel-28 • WM-266-4 • LOX-IMVI • 501mel^Vemur
In xenograft studies with cell lines: • Tumour volume was calculated using the equation […], where a: length (longest diameter) and b: width (shortest diameter) were measured in mm by using digital caliper (Fowler Sylvac, S235PAT). Tumour dimensions and body weights were recorded 2-3 times per week starting from the first day of treatment. • When tumors reached ca. 150-250 mm^3, tumour bearing animals (N = 8-10/group) were randomly allocated into the treatment groups, based on body weight and tumour measurements by using NewLab Oncology Software (version 2.25.06.00). • Comparison between median tumour volume of treated and placebo groups was used for evaluation of the antitumoural efficacy. • Animals were euthanized when their tumours reached ca. 1,500 mm^3 and/or severe necrosis was seen. […]

MM074 and MM029 cells = conditions: MM074 and MM029, 10×IC50 for 8h
Protocol: Purified RNA was subjected to library preparation and high throughput sequencing on Illumina NovaSeq as signal-read 50 base reads following manufacturer's instructions. Sequenced samples were analyzed using nf-core RNAseq pipeline v1.3, quality controlled, trimmed, and aligned to the reference human genome using HISAT2. The identification and quantification of transcripts were performed using feature Counts from subread package. Differential expressed gene (DEG) analysis were done using DeSeq2.

Hermes3A = assay: Cell viability assay (PrestoBlue), 72h; conditions: for sensitivity of non-cancerous Hermes3A immortalized melanocytes compared with the melanoma cells: Hermes3A versus melanoma cells; for IC50: Homo sapiens, Melanocyte, 72 h
Protocol: (§1) Cells were grown at 37°C in 5% CO2 (10% for Hermes 3A) and were regularly checked for mycoplasma contamination. […] Melanoma IGR cell lines (IGR37 and IGR39) were grown in RPMI w/o HEPES (Gibco, Invitrogen) supplemented with 15% FCS and gentamycin.
(§2) To determine the IC50 (half maximal inhibitory concentration) of these cells to various inhibitors, cell viability assays were performed.
(§3) After 72h of treatment with different concentrations of the compounds, cells were treated with PrestoBlue reagent according to the manufacturer's instructions. The absorbance per well was measured with a Cellinsight CX5 microplate reader. Data were analyzed using Prism9 statistical software.

501mel = assay: Cell viability assay (PrestoBlue), 72h; conditions: Homo sapiens
Protocol: Cells were grown at 37°C in 5% CO2 (10% for Hermes 3A) and were regularly checked for mycoplasma contamination. […] Melanoma cell lines 501mel and SKmel28 were grown in RPMI w/o HEPES (Gibco, Invitrogen) supplemented with 10% FCS and gentamycin. Vemurafenib-resistant cells (501melVemuR and MM074VemuR) were additionally supplemented with 1.5 µM of vemurafenib. Melanoma IGR cell lines (IGR37 and IGR39) were grown in RPMI w/o HEPES (Gibco, Invitrogen) supplemented with 15% FCS and gentamycin.
as §2, §3

MM047 = assay: Cell viability assay (PrestoBlue), 72h; conditions: Homo sapiens
Protocol: as §1, §2, §3

| SMILES | late apoptotic cells positive for Annexin V and propidium iodide (MM074 melanospheres) | tumor volume compared to the placebo [1] | transcriptional effects compared to lurbinectedin (MM074 and MM029 cells) | sensitivity of non-cancerous Hermes3A immortalized melanocytes compared with the melanoma cells (Hermes3A) | IC50 (Hermes3A) | IC50 (501mel) | IC50 (MM047) |
| --- | --- | --- | --- | --- | --- | --- | --- |
| COc1c(C)cc2c(c1O)[C@@H]1[C@@H]3[C@@H]4SC[C@]5(N[C@H](CO)Cc6c5oc5ccccc65)C(=O)OC[C@@H](c5c6c(c(C)c(OC(C)=O)c54)OCO6)N3[C@@H](O)[C@H](C2)N1C [Compound IA] | substantial population of late apoptotic cells | reduction of the volume tumor | dissimilar and fewer genes being deregulated | less sensitive | 4.93 nM | 1.74 nM | 1.38 nM |
| COc1c(C)cc2c(c1O)[C@@H]1[C@@H]3[C@@H]4SC[C@]5(N[C@H](CO)Cc6c5[nH]c5ccccc65)C(=O)OC[C@@H](c5c6c(c(C)c(OC(C)=O)c54)OCO6)N3[C@@H](O)[C@H](C2)N1C [PM14, ecubectedin] | substantial population of late apoptotic cells | reduction of the volume tumor |  | less sensitive | 2.89 nM | 1.25 nM | 0.96 nM |

From patent EP4563149A1, “LURBINECTEDIN, ECUBECTEDIN AND A RELATED COMPOUND FOR USE IN THE TREATMENT OF SKIN CANCERS” (Pharma Mar, S.A., priority 2023, dated 2025)
